Columns and labels:
[1] = Form stability at high temperature and humidity (uncovered vial in stability chamber, then PXRD / 1H NMR analysis); type: physicochemical; design: key to Form stability result (PXRD): NC: no change in PXRD; conditions: 40° C./75% RH
Method: PXRD diffractograms were recorded on a Bruker D8 Discover powder X-ray diffractometer (Bruker AXS LLC, Karlsruhe, Germany). The sample holder was oscillated along X and Y axes during the measurement. The generator was a Incoatec Microfocus Source (IμS) Cu tube (λ=1.54060 Å) with a voltage of 50 kV and current of 1.00 mA, using a divergence slit of 0.3 mm and collimator of 0.3 mm. For each sample, one frame was collected using a still scan with a PILATUS3 R 100K-A detector at the distance of 154.72 mm from the sample. Raw data were evaluated using the program DIFFRAC.EVA (Bruker AXS LLC, Karlsruhe, Germany).
Samples were kept in an uncovered vial in a stability chamber maintained at 40° C./75% relative humidity (RH) for the specified period prior to PXRD analysis to evaluate form stability.

[2] = cited from earlier work
[3] = cited from earlier work; remark: listed apart in the source
[4] = cited from earlier work; remark: listed apart in the source

| SMILES | Form stability result (PXRD) ([1]; 3 months) | Form stability result (PXRD) ([1]; 1 month) | also measured |
| --- | --- | --- | --- |
| COC(=O)c1ccc2c(c1)NC(=O)C2=C(Nc1ccc(N(C)C(=O)CN2CCN(C)CC2)cc1)c1ccccc1.O=C(O)CNC(=O)c1ccccc1 [Nintedanib hippurate Form APO-I, nintedanib hippurate] | NC | – | 1H NMR spectroscopy following storage ([1]; after storage (3 months per Table 8)): no change |
| CC1=CC(=O)NS(=O)(=O)O1.CC1=CC(=O)NS(=O)(=O)O1.COC(=O)c1ccc2c(c1)NC(=O)C2=C(Nc1ccc(N(C)C(=O)CN2CCN(C)CC2)cc1)c1ccccc1 [Nintedanib diacesulfamate Form APO-I, nintedanib diacesulfamate] | NC | – | – |
| COC(=O)c1ccc2c(c1)NC(=O)/C2=C(\Nc1ccc(N(C)C(=O)CN2CCN(C)CC2)cc1)c1ccccc1 [nintedanib esylate, (3Z)-2,3-dihydro-3-[[[4-[methyl[(4-methyl-1-piperazinyl)acetyl]amino]phenyl]amino]phenylmethylene]-2-oxo-1H-indole-6-carboxylic acid methyl ester] | – | – | Chemical stability in the presence of water [2]: undergo hydrolysis; Solubility in neutral aqueous conditions [3]: poor; Bioavailability in humans [4]: low |
| CC(=O)CCC(=O)O.COC(=O)c1ccc2c(c1)NC(=O)C2=C(Nc1ccc(N(C)C(=O)CN2CCN(C)CC2)cc1)c1ccccc1 [Nintedanib levulinate Form APO-I, nintedanib levulinate] | NC | – | – |
| COC(=O)c1ccc2c(c1)NC(=O)C2=C(Nc1ccc(N(C)C(=O)CN2CCN(C)CC2)cc1)c1ccccc1.O=C1NS(=O)(=O)c2ccccc21 [Nintedanib saccharinate Form APO-I, nintedanib saccharinate] | – | NC | – |
| COC(=O)c1ccc2c(c1)NC(=O)C2=C(Nc1ccc(N(C)C(=O)CN2CCN(C)CC2)cc1)c1ccccc1.O=C(O)CCCC(=O)O [Nintedanib glutarate Form APO-I, nintedanib glutarate] | – | NC | – |
| CC1=CC(=O)NS(=O)(=O)O1.COC(=O)c1ccc2c(c1)NC(=O)C2=C(Nc1ccc(N(C)C(=O)CN2CCN(C)CC2)cc1)c1ccccc1 [Nintedanib acesulfamate Form APO-I, nintedanib acesulfamate] | – | NC | – |

— US20230093124A1, “Salts of Nintedanib and Crystalline Forms Thereof” (Apotex Inc., priority 2021, published 2023)
